Laboratory results taken from PubChem BioAssay AID1963872 (Molecular Pharmacology Branch, DTP, NCI, 2024).

Tested on: KRAS patient-derived spheroids with HUVEC/MSC, viability
Test: Anticancer human tumor 519858-162-T-J1-PDC patient-derived colon adenocarcinoma cell line growth inhibition [KRAS2]
Conditions: for viability, T/C: stronger effect = lower value
Source text: Multicellular complex tumor spheroid response to RAS pathway inhibitors in combination with a targeted agents in patient-derived cell lines with oncogenic KRAS variants from multiple cancer types
A high-throughput screen of multi-cell type tumor spheroids was designed to identify active combinations of targeted small molecules and KRAS pathway inhibitors. Complex spheroids include a stromal component modeled by human endothelial cells (HUVEC) and fibroblasts modeled by human mesenchymal stem cells (MSCs). The concentration ranges selected for each drug and investigational agent were based upon clinically achievable concentrations if the clinical Cmax of the agent was known.
Compounds. The drugs and investigational agents: BI-3406 (NSC825286), BAY-293 (NSC824723), batoprotafib (TNO155; NSC825523), sotorasib (AMG 510; NSC818433), MRTX1257 (NSC819558), elimusertib (BAY 1895344; NSC800525), molibresib (GSK525762; NSC774829), temuterkib (LY3214996; NSC803410), venetoclax (NSC766270), alisertib (NSC759677), olaparib (NSC753686), talazoparib (NSC767125), erdafitinib (NSC781556), ipatasertib (NSC767898), cabozantinib (NSC761068), nintedanib (NSC756659), abemaciclib (NSC768073), docetaxel (NSC628503), trametinib (NSC758246), and sapanisertib (NSC764658) were obtained from the National Cancer Institute (NCI) Developmental Therapeutics Program Chemical Repository. The FDA-approved anticancer drug set is available from the Developmental Therapeutics Program. […] The stock solutions were prepared in dimethyl sulfoxide (DMSO, Sigma-Aldrich, St. Louis, MO, cat. D2650) at 800-fold the tested concentration and stored at -70 degrees C prior to their use. All drugs and investigational agents were tested over a range starting from a high concentration at or near the clinical Cmax and decreasing in half-log increments. If the clinical Cmax for an agent had not been determined, the highest concentration tested was 10 microM.
Cell Culture. All cells were maintained in an incubator at 37 degrees C and 5% CO2 with 95% humidity. The PDC lines were cultured according to standard operating procedures established by the NCI PDMR (https://pdmr.cancer.gov/sops/default.htm). Briefly, all PDCs were thawed and cultured in Matrigel-coated flasks prepared with a working solution of 1X Ham's F-12 nutrient mix, without supplementation (Invitrogen, Waltham, MA, cat. 11765054), 100 U/mL penicillin-streptomycin (Invitrogen, cat. 15140122), and 2.5% Matrigel (Corning Inc., Corning, NY, cat. 354248) for the first three passages. All PDCs were cultured in complete DMEM/F-12 media containing advanced DMEM/F-12 (Invitrogen, cat. 12634028), 4.9% defined fetal bovine serum, heat inactivated (HyClone Laboratories Inc., Logan, UT, cat. SH30070.03HI), 389 ng/mL hydrocortisone (Sigma-Aldrich, cat. H4001), 9.7 ng/mL human EGF recombinant protein (Invitrogen, cat. PHG0313), 23.4 microg/mL adenine (Sigma-Aldrich, cat. A2786), 97.3 U/mL penicillin-streptomycin (Invitrogen, cat. 15140122), 1.9 mM L-glutamine (Invitrogen, cat. 25030081), and 9.7 microM Y-27632 dihydrochloride (Tocris Bioscience, Bristol, United Kingdom, cat. 1254). The PDCs were cultured in complete DMEM/F12 media without 9.7 microM Y-27632 dihydrochloride for at least two passages prior to the screen. The established cell line HOP-62 was cultured in RPMI 1640 medium, HEPES (Invitrogen, cat. 22400105) with 10% defined fetal bovine serum (HyClone Laboratories Inc., cat. SH30070.03) and 2 mM L-glutamine (Invitrogen, cat. 25030081). The pooled donor HUVEC were cultured in endothelial cell growth medium 2 (PromoCell, Heidelberg, Germany, cat. C-22011) and the hMSC were cultured in mesenchymal stem cell growth medium 2 (PromoCell, cat. C-28009). For all experiments, HUVEC and hMSC were used at passages </=5, while the malignant cell lines were used at passages </=15. […]

[1] = curve of first compound, second compound 0.1 µM
[2] = curve of first compound, second compound 0.316 µM
[3] = curve of first compound, second compound 1 µM
[4] = curve of first compound, second compound 3.16 µM
[5] = curve of first compound, second compound 10 µM
[6] = second compound 0.1 µM, first compound 0.0316 µM
[7] = second compound 0.1 µM, first compound 0.1 µM
[8] = second compound 0.1 µM, first compound 0.316 µM
[9] = second compound 0.1 µM, first compound 1 µM
[10] = second compound 0.1 µM, first compound 3.16 µM
[11] = second compound 0.1 µM, first compound 10 µM
[12] = second compound 0.316 µM, first compound 0.0316 µM
[13] = second compound 0.316 µM, first compound 0.1 µM
[14] = second compound 0.316 µM, first compound 0.316 µM
[15] = second compound 0.316 µM, first compound 1 µM
[16] = second compound 0.316 µM, first compound 3.16 µM
[17] = second compound 0.316 µM, first compound 10 µM
[18] = second compound 1 µM, first compound 0.0316 µM
[19] = second compound 1 µM, first compound 0.1 µM
[20] = second compound 1 µM, first compound 0.316 µM
[21] = second compound 1 µM, first compound 1 µM
[22] = second compound 1 µM, first compound 3.16 µM
[23] = second compound 1 µM, first compound 10 µM
[24] = second compound 3.16 µM, first compound 0.0316 µM
[25] = second compound 3.16 µM, first compound 0.1 µM
[26] = second compound 3.16 µM, first compound 0.316 µM
[27] = second compound 3.16 µM, first compound 1 µM
[28] = second compound 3.16 µM, first compound 3.16 µM
[29] = second compound 3.16 µM, first compound 10 µM
[30] = second compound 10 µM, first compound 0.0316 µM
[31] = second compound 10 µM, first compound 0.1 µM
[32] = second compound 10 µM, first compound 0.316 µM
[33] = second compound 10 µM, first compound 1 µM
[34] = second compound 10 µM, first compound 3.16 µM
[35] = second compound 10 µM, first compound 10 µM
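Further: compound exposure lasted seven days before readout.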
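Wherever viability, T/C is given: 100% = DMSO vehicle control viability.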

Structure (SMILES) | IC50 [1] [µM] | IC50 [2] [µM] | IC50 [3] [µM] | IC50 [4] [µM] | IC50 [5] [µM] | viability, T/C [6] [%] | viability, T/C [7] [%] | viability, T/C [8] [%] | viability, T/C [9] [%] | viability, T/C [10] [%] | viability, T/C [11] [%] | viability, T/C [12] [%] | viability, T/C [13] [%] | viability, T/C [14] [%] | viability, T/C [15] [%] | viability, T/C [16] [%] | viability, T/C [17] [%] | viability, T/C [18] [%] | viability, T/C [19] [%] | viability, T/C [20] [%] | further results
COc1cc(Nc2ncc3c(n2)-c2ccc(Cl)cc2C(c2c(F)cccc2OC)=NC3)ccc1C(=O)O + COc1cc2nc(C)nc(NC(C)c3cc(N)cc(C(F)(F)F)c3)c2cc1OC1CCOC1 | > 10 | > 10 | > 10 | > 10 | > 10 | 76.3 | 72.5 | 68 | 75.6 | 88.5 | 87.6 | 79.3 | 78.1 | 62.2 | 82.8 | 78.4 | 115 | 85.9 | 66.4 | 76.6 | viability, T/C [21]: 74.8%; viability, T/C [22]: 68.6%; viability, T/C [23]: 72.3%; viability, T/C [24]: 78.9%; viability, T/C [25]: 72%; viability, T/C [26]: 60.6%; viability, T/C [27]: 80.9%; viability, T/C [28]: 60.6%; viability, T/C [29]: 76.4%; viability, T/C [30]: 65.3%; viability, T/C [31]: 74.2%; viability, T/C [32]: 54.8%; viability, T/C [33]: 63.5%; viability, T/C [34]: 60.6%; viability, T/C [35]: 75.3%
O=C(c1cc(Cc2n[nH]c(=O)c3ccccc23)ccc1F)N1CCN(C(=O)C2CC2)CC1 |  |  |  |  |  |  |  |  |  |  |  |  |  |  |  |  |  |  |  |  | IC50 (curve of compound): > 10 µM
CC(C)NCC(C(=O)N1CCN(c2ncnc3c2C(C)CC3O)CC1)c1ccc(Cl)cc1 (stereo unspecified) + CC1OCC2(CCN(c3cnc(Sc4ccnc(N)c4Cl)c(N)n3)CC2)C1N | > 10 | > 10 | > 10 | > 10 | > 10 | 83.1 | 84.9 | 54.9 | 61.9 | 64 | 88.8 | 93 | 55.3 | 55.9 | 44 | 60.1 | 70.9 | 77 | 71.9 | 58.7 | viability, T/C [21]: 62%; viability, T/C [22]: 59.2%; viability, T/C [23]: 69.3%; viability, T/C [24]: 59.7%; viability, T/C [25]: 70.9%; viability, T/C [26]: 56.1%; viability, T/C [27]: 55.2%; viability, T/C [28]: 51.8%; viability, T/C [29]: 61%; viability, T/C [30]: 69.5%; viability, T/C [31]: 56.3%; viability, T/C [32]: 65.9%; viability, T/C [33]: 66.1%; viability, T/C [34]: 68.9%; viability, T/C [35]: 56.4%
